What follows are compounds tested against T1, human recombinant OX2 (hOX2) receptor (Homo sapiens, UniProt O43614) (assay: IP-1 accumulation assay (IP-One HTRF) in hOX2-CHO cells). Details: 60 min at 37° C., mean of at least two independent experiments, read-out: EC50_OX2R Category.
T1 construct: host or cells: CHO cells
T1 sequence (O43614 1-444): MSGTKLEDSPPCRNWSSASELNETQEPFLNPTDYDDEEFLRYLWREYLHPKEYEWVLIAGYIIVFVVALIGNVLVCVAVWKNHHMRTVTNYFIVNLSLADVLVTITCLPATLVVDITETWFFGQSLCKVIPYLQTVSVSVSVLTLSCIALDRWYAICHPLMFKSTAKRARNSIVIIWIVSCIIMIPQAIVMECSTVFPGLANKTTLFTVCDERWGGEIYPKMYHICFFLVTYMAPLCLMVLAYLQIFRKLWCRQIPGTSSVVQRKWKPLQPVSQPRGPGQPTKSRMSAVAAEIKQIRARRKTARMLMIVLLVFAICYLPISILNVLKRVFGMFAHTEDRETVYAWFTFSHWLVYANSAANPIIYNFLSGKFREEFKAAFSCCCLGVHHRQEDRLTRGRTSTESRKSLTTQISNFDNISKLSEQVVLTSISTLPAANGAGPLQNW
Type: cell-based
Outline: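 hOX2 receptor expressed in CHO cells, seeded in suspension in HBSS with 20 mM HEPES pH 7.4, LiCl and 0.1% BSA; compounds tested as 11-point CRC (0.5% DMSO final), 60 min at 37 °C. IP-1 read by HTRF (665/615 ratio) after 60 min lysis at room temperature; response as % of maximal OX-A response, EC50 by four-parameter logistic fit, mean of ≥2 experiments in duplicate.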

EC50 [µM] | Compound
1 to 10 | COCC(=O)N1[C@H](C)C[C@@]2(COCC(=O)N2)[C@@H]1Cc1cccc(-c2cc(F)cc(F)c2)c1F [Example 88, (1S,3R,5S)-2-(2-methoxyacetyl)-3-methyl-1-({2,3′,5′-trifluoro-[1,1′-biphenyl]-3-yl}methyl)-9-oxa-2,6-diazaspiro[4.5]decan-7-one]
0.1 to 1 | C[C@@H]1C[C@@]2(COCC(=O)N2)[C@H](Cc2cccc(-c3cc(F)cc(F)c3)c2F)N1C(=O)[C@H]1CCO1 [Example 89, (1S,3R,5S)-3-methyl-2-[(2R)-oxetane-2-carbonyl]-1-({2,3′,5′-trifluoro-[1,1′-biphenyl]-3-yl}methyl)-9-oxa-2,6-diazaspiro[4.5]decan-7-one]
> 10 | C[C@@H]1C[C@@]2(COCC(=O)N2)[C@H](Cc2cccc(-c3cc(F)cc(F)c3)c2F)N1S(C)(=O)=O [Example 93, (1S,3R,5S)-2-methanesulfonyl-3-methyl-1-({2,3′,5′-trifluoro-[1,1′-biphenyl]-3-yl}methyl)-9-oxa-2,6-diazaspiro[4.5]decan-7-one]

Source: patent US20240254143A1, “OREXIN RECEPTOR AGONISTS AND USES THEREOF” (JAZZ PHARMACEUTICALS IRELAND LIMITED, priority 2021, published 2024)
